Laboratory results published in US20220348590A1, “CYCLOOXYGENASE-2 INHIBITORS AND USES THEREOF” (The Board Institute, Inc., priority 2019, published 2022).
≈ marks a conversion by molar mass, not a printed value. Where two headings read alike, the source gives them in different places.

Tests used:
[1] = target: T1, human recombinant COX2 (hCOX2) (UniProt P35354); experiment: LCMS-based COX2 enzymatic inhibition assay (PGE2 quantification); assay type: biochemical; parameters: COX2 2 minutes pge2/pge2d4 area ratio Avg; other: 2 minutes; readout pge2/pge2d4 area ratio; average; COX2 2 minutes pge2/pge2d4 area ratio Avg; LLE; average LLE; COX2 2 minutes pge2 area (counts) Avg; readout pge2 area (counts); other: 2 min; "ovine COX2 (oCOX2), human recombinant COX2 (hCOX2)"; conditions: 2 minutes; for COX2 2 minutes pge2/pge2d4 area ratio Avg. LLE / COX2 2 minutes pge2 area (counts) Avg. LLE: average LLE; for IC50: average
T1 sequence (P35354 1-604): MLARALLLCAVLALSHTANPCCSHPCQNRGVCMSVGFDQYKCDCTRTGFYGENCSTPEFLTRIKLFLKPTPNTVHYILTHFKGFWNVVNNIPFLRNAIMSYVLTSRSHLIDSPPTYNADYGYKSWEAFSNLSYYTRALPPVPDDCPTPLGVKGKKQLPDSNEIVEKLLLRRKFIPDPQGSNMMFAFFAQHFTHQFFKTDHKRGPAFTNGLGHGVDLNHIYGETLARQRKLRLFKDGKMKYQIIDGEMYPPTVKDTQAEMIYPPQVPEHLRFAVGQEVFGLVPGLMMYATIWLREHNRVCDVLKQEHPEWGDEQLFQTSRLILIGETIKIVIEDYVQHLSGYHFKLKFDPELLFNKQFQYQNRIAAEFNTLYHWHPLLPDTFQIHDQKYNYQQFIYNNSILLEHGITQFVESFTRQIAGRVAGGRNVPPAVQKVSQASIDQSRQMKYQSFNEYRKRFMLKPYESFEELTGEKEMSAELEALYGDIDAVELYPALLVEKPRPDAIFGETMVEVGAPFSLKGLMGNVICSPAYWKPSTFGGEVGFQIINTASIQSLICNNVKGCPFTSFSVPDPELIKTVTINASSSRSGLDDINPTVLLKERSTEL
Summary of the method: (§1)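 Ovine COX-1 (0.1 μg) or human recombinant COX2 (0.2 μg) in 100 mM Tris.HCl pH 8.0 with hematin and epinephrine, preincubated with inhibitor 10 min at 37 °C. Reaction with 5 μM arachidonic acid stopped after 2 min with HCl; PGE2 quantified by LC-MS-MS. IC50 from 12 concentrations in triplicate.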

[2] = target: T2, ovine COX-1 (oCOX-1) (Ovis aries, UniProt P05979); experiment: LCMS-based COX-1 enzymatic inhibition assay (PGE2 quantification); assay type: biochemical
T2 construct: purchased Cayman Chemicals (Ann Arbor, Mich.)
T2 sequence (P05979 25-600): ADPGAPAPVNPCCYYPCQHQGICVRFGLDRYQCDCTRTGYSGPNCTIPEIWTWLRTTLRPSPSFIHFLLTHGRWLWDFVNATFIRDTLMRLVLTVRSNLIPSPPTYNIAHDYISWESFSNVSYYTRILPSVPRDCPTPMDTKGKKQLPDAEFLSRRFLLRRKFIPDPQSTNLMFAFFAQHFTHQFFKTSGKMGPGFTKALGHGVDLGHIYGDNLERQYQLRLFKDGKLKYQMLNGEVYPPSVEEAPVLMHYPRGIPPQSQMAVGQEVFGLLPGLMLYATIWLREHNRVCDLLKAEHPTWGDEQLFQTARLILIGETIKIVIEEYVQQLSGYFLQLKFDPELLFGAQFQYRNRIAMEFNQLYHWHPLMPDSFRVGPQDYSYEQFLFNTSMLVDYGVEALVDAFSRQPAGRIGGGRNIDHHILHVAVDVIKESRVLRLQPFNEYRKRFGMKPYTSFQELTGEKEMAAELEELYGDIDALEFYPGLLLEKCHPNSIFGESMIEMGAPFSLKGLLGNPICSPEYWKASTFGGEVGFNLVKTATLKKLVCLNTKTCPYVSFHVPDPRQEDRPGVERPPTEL
Summary of the method: as §1

[3] = Human Microsome Stability; assay type: in vitro ADME; conditions: human microsomes
[4] = rat plasma protein binding (PPB) assay; assay type: in vitro ADME; conditions: average, read-out: Rat Plasma Protein Binding % Bound Avg (converted)
Method: We have adapted a previously reported cyclooxygenase enzymatic assay utilizing LCMS quantification of PGE2 as the product of COX-1 and COX2 catalyzed conversion of arachidonic acid to evaluate the binding properties of newly synthesized ligands [Cao, 2011]. These optimized and miniaturized (384-well plates) LCMS-based COX-1 and COX2 enzymatic assays enabled us to quickly evaluate newly synthesized ligands for COX2 binding affinity and selectivity vs COX-1. Using a shorter ligand-enzyme incubation time in the LCMS assay (2 minutes vs 10 minutes) also permitted us to prioritize ligands with faster binding kinetics. Considering the relatively slow on-rate kinetics of known coxibs, due to their 3-step binding mechanism [Marnett, 2009], we believe that optimizing this critical parameter will be key to the successful development of a COX2 PET tracer. Using these enzymatic assays, we have evaluated>200 newly synthesized ligands against COX2 and >20 ligands against COX-1. Another critical property necessary for a good PET radiotracer is to have low non-specific binding (NSB) to increase the free fraction and maximize the signal to noise ratio. This property can be evaluated using in-vitro protein binding assays, and we have now evaluated>50 newly synthesized ligands in mouse, rat and human plasma protein binding (PPB) assays as well as >15 ligands in a mouse brain protein binding (BPB) assay.

[5] = Rat Plasma Protein Stability (% Remaining); assay type: in vitro ADME; conditions: average
[6] = PBS Solubility (no DMSO); assay type: physicochemical; conditions: aqueous buffer, thermodynamic from solid, average
[7] = Mouse Plasma Protein Stability (% Remaining); assay type: in vitro ADME; conditions: average
[8] = readout pge2/pge2d4 area ratio, read-out: COX2 2 minutes pge2/pge2d4 area ratio Avg. IC50
[9] = readout pge2 area (counts), read-out: COX2 2 minutes pge2 area (counts) Avg. IC50
[10] = 10 minutes, readout pge2/pge2d4 area ratio, average LLE
[11] = 10 minutes, readout pge2 area (counts), average LLE
[12] = 10 minutes, readout pge2/pge2d4 area ratio, average, read-out: COX1 10 minutes pge2/pge2d4 area ratio Avg. IC50
[13] = 10 minutes, readout pge2 area (counts), average, read-out: COX1 10 minutes pge2 area (counts) Avg. IC50
[14] = 10 minutes, pge2/pge2d4 area ratio, head of this section not shown, inferred
[15] = 10 minutes, pge2 area (counts), head of this section not shown, inferred
[16] = 10 minutes, pge2 area (counts), head of this section not shown, inferred, read-out: COX1 10 minutes pge2 area (counts) Avg. IC50

SMILES | COX2 2 minutes pge2/pge2d4 area ratio Avg. LLE ([1]; readout pge2/pge2d4 area ratio) | IC50 [1, 8] | COX2 2 minutes pge2 area (counts) Avg. LLE ([1]; readout pge2 area (counts)) | IC50 [1, 9] | solubility [6] | IC50 [2, 12] | IC50 [2, 13] | Mouse Plasma Protein Stability % Remaining Avg [7] | COX1 10 minutes pge2/pge2d4 area ratio Avg. LLE [2, 14] | COX1 10 minutes pge2 area (counts) Avg. LLE [2, 15] | IC50 [2, 16] | IC50 [2] | COX1 10 minutes pge2/pge2d4 area ratio Avg. LLE [2, 10] | COX1 10 minutes pge2 area (counts) Avg. LLE [2, 11] | Human Microsome Stability % Remaining Avg [3] | fraction unbound [4] | Rat Plasma Protein Stability % Remaining Avg [5]
Cc1cc(CNc2cccc(-c3ccc(S(C)(=O)=O)cc3)n2)co1 [Compound 27] | 4.789 | 13.3 nM | 4.853 | 10.9 nM |  |  |  |  |  |  |  | 52000 nM | 1.134 | 1.134 | 8.8% | 0.037 | 99.7%
CS(=O)(=O)c1ccc(-c2nc(NCc3ccco3)ccc2F)cc1 [Compound 218] | 3.092 | 1610 nM | 3.132 | 1720 nM |  |  |  |  |  |  |  |  |  |  | 15% |  | 
CS(=O)(=O)c1ccc(-c2cccc(OCc3ccco3)n2)cc1 [Compound 28] | 4.722 | 13.6 nM | 4.78 | 12.6 nM |  |  |  |  |  |  |  | 52000 nM | 1.104 | 1.104 | 15% | 0.025 | 102.8%
CS(=O)(=O)c1ccc(-c2cccc(NCc3cccs3)n2)cn1 [Compound 59] | 5.112 | 32 nM | 5.062 | 42.6 nM |  |  |  |  | 1.754 | 1.754 |  | 52000 nM |  |  | 28% |  | 
CS(=O)(=O)c1ccc(-c2cnc3ccn(Cc4ccco4)c3n2)cc1 [Compound 82] | 4.353 | 57.3 nM | 4.328 | 63.3 nM |  | 17200 nM |  |  | 1.865 | 1.853 | 17600 nM |  |  |  |  |  | 
C[S+]([O-])c1ccc(-c2cncc(NCc3cccs3)n2)cc1 (centres unmarked) [Compound 129] | 5.405 | 152 nM | 5.443 | 141 nM |  |  |  |  |  | 2.83 | 50200 nM |  |  |  |  |  | 
CS(=O)(=O)c1ccc(-c2cccc(/C=C\c3cccs3)n2)cc1 [Compound 41] | 3.735 | 19 nM | 3.716 | 21.7 nM |  |  | 49600 nM |  |  |  |  | 52000 nM | 0.234 | 0.2543 |  | 0.021 | 100%

More lines, in order of falling IC50 [1, 8], values ahead:

COX2 2 minutes pge2/pge2d4 area ratio Avg. LLE ([1]; readout pge2/pge2d4 area ratio) | IC50 [1, 8] | COX2 2 minutes pge2 area (counts) Avg. LLE ([1]; readout pge2 area (counts)) | IC50 [1, 9] | solubility [6] | IC50 [2, 12] | IC50 [2, 13] | Mouse Plasma Protein Stability % Remaining Avg [7] | COX1 10 minutes pge2/pge2d4 area ratio Avg. LLE [2, 14] | COX1 10 minutes pge2 area (counts) Avg. LLE [2, 15] | IC50 [2, 16] | SMILES | IC50 [2] | COX1 10 minutes pge2/pge2d4 area ratio Avg. LLE [2, 10] | COX1 10 minutes pge2 area (counts) Avg. LLE [2, 11] | Human Microsome Stability % Remaining Avg [3] | fraction unbound [4] | Rat Plasma Protein Stability % Remaining Avg [5]
 | 49.4 nM |  | 43.6 nM |  | 33500 nM |  |  |  |  |  | CS(=O)(=O)c1ccc(-c2cncc(SCc3ccco3)n2)cc1 [Compound 78] |  |  |  |  |  | 
4.259 | 48.6 nM | 4.246 | 53.8 nM |  |  |  |  |  | 1.289 | 40900 nM | Cn1cccc1CNc1cccc(-c2ccc(S(C)(=O)=O)cc2)n1 [Compound 77] |  |  |  |  |  | 
4.278 | 48.6 nM | 4.291 | 48.5 nM |  | 31600 nM |  |  | 1.461 |  |  | CS(=O)(=O)c1ccc(-c2nc(NCc3cccs3)cnc2C(F)(F)F)cc1 [Compound 76] |  |  |  |  |  | 
3.0886 | 38.9 nM | 3.016 | 45.2 nM |  | 19600 nM |  |  | 0.3787 | 0.343 | 21200 nM | CS(=O)(=O)c1ccc(-c2cc3ccoc3c(NCc3cccs3)n2)cc1 [Compound 67] |  |  |  |  |  | 
5.595 | 36.1 nM | 5.591 | 36.6 nM |  | 5360 nM |  |  | 3.4205 | 3.473 | 4760 nM | COc1ncc(-c2ccc(S(N)(=O)=O)cc2)nc1NCc1cccs1 [Compound 64] |  |  |  |  |  | 
3.218 | 15.2 nM | 3.116 | 18.5 nM |  | 2220 nM | 2710 nM |  |  |  |  | CS(=O)(=O)c1ccc(-c2ccc3ccn(Cc4cccs4)c3n2)cc1 [Compound 31] |  | 1.013 | 0.929 |  |  | 
4.5476 | 8.78 nM | 4.59 | 8.19 nM |  |  |  |  |  |  |  | CS(=O)(=O)c1ccc(-c2cccc(NCc3ccc(F)cc3)n2)cc1 [Compound 13] |  |  |  | 62% | 0.021 | 101%
5.445 | 8.44 nM | 5.417 | 9.78 nM | 7.4 µM (≈ 2.56 µg/mL) | 38500 nM | 37700 nM |  |  |  |  | CS(=O)(=O)c1ccc(-c2cncc(SCc3ccoc3)n2)cc1 [Compound 12] |  | 1.784 | 1.801 |  | 0.006 | 95%
5.399 | 6.59 nM | 5.446 | 7.15 nM |  |  |  | 92.8% |  |  |  | COc1ncc(OCc2cccs2)nc1-c1ccc(S(C)(=O)=O)cc1 [Compound 8] |  |  |  |  |  | 
